Molecular target: T1, BCL-XL (Homo sapiens, UniProt Q07817)
T1 construct: endogenous in cells; host or cells: MOLT-4
Test: Bcl-xL ELISA degradation in MOLT-4 cells, 6 h
Assay type: cell-based
Settings: for DC50: read-out: Bcl-xL ELISA in MOLT-4 degradation 6 h: Mean external-Abs DC50
Protocol: The letter codes for BCL-XL DC50 include: A (<0.01 μM); B (0.01-0.1 μM); C (>[…]); D (>0.5-1.0 μM); and E (>1.0 μM). The letter codes for Dmax % include A (>75%); B (50 to 75%); C (<50%).

T1 sequence (Q07817 whole entry): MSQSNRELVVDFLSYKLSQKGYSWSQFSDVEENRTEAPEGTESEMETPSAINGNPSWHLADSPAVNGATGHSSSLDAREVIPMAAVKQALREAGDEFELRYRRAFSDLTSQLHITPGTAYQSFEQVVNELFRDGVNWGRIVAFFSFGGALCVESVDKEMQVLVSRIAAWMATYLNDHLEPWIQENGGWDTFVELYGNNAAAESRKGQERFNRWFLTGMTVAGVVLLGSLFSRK

SMILES | Dmax [%] | DC50 [nM]
Cc1ncsc1-c1ccc([C@H](C)NC(=O)[C@@H]2C[C@@H](O)CN2C(=O)[C@@H](NC(=O)N2CCC3(CCN(CC#Cc4ccc(OCCCc5sc(N6CCc7cccc(C(=O)Nc8nc9ccccc9s8)c7C6)nc5C(=O)O)c(F)c4)CC3)CC2)C(C)(C)C)cc1 [I-71] | < 50 | –
Cc1ncsc1-c1ccc([C@H](C)NC(=O)[C@@H]2C[C@@H](O)CN2C(=O)[C@@H](NC(=O)N2CCN(CC#Cc3ccc(OCCCc4sc(N5CCc6cccc(C(=O)Nc7nc8ccccc8s7)c6C5)nc4C(=O)O)c(F)c3)CC2)C(C)(C)C)cc1 [I-73] | < 50 | –
Cc1ncsc1-c1ccc(CNC(=O)[C@@H]2C[C@@H](O)CN2C(=O)[C@@H](NC(=O)C2(F)CC2)C(C)(C)C)c(OCCCC(=O)N2CCN(CC#Cc3ccc(OCCCc4sc(N5CCc6cccc(C(=O)Nc7nc8ccccc8s7)c6C5)nc4C(=O)O)c(F)c3)CC2)c1 [I-223] | 50 to 75 | 10 to 100
Cc1ncsc1-c1ccc(CNC(=O)[C@@H]2C[C@@H](O)CN2C(=O)[C@@H](NC(=O)C2(F)CC2)C(C)(C)C)c(OC2CCN(CC3CCN(C(=O)c4nc(N5CCc6cccc(C(=O)Nc7nc8ccccc8s7)c6C5)ccc4-c4cnn(CC5CCCCC5)c4C)CC3)CC2)c1 [I-227] | < 50 | > 1000
Cc1ncsc1-c1ccc([C@H](C)NC(=O)[C@@H]2C[C@@H](O)CN2C(=O)[C@@H](NC(=O)C2CCN(c3ccc(S(=O)(=O)NC(=O)c4nc(N5CCc6cccc(C(=O)Nc7nc8ccccc8s7)c6C5)ccc4-c4cnn(CC(C)C)c4C)cc3)CC2)C(C)(C)C)cc1 [I-240] | > 75 | 10 to 100
Cc1cc(N(C)c2ccc(-c3cnn(CC4CCCCC4)c3C)c(C(=O)NS(=O)(=O)c3ccc(N4CCC(C(=O)N[C@H](C(=O)N5C[C@H](O)C[C@H]5C(=O)N[C@@H](C)c5ccc(-c6scnc6C)cc5)C(C)(C)C)CC4)cc3)n2)nnc1Nc1nc2ccccc2s1 [I-244] | > 75 | 10 to 100
C#Cc1ccc([C@H](CO)NC(=O)[C@@H]2C[C@@H](O)CN2C(=O)[C@@H](NC(=O)C2CCN(c3ccc(S(=O)(=O)NC(=O)c4nc(N(C)c5cc(C)c(Nc6nc7ccccc7s6)nn5)ccc4-c4cnn(CC5(CC)CC6CC(C)CC(C6)C5)c4C)cc3)CC2)C(C)(C)C)cc1 (some centres unmarked) [I-245] | > 75 | 10 to 100
Cc1ncsc1-c1ccc([C@H](C)NC(=O)[C@@H]2C[C@@H](O)CN2C(=O)[C@@H](NC(=O)N2CCC(N3CCN(C(=O)c4nc(N5CCc6cccc(C(=O)Nc7nc8ccccc8s7)c6C5)ccc4-c4cnn(CC5CCCCC5)c4C)CC3)CC2)C(C)(C)C)cc1 [I-247] | < 50 | > 1000
Cc1ncsc1-c1ccc([C@H](C)NC(=O)[C@@H]2C[C@@H](O)CN2C(=O)[C@@H](NC(=O)C2CCN(c3ncc(S(=O)(=O)NC(=O)c4nc(N5CCc6cccc(C(=O)Nc7nc8ccccc8s7)c6C5)ccc4-c4cnn(CC5CCCCC5)c4C)cn3)CC2)C(C)(C)C)cc1 [I-250] | > 75 | 10 to 100
Cc1ncsc1-c1ccc(CNC(=O)[C@@H]2C[C@@H](O)CN2C(=O)[C@@H](NC(=O)C2CCN(c3ccc(S(=O)(=O)NC(=O)c4nc(N5CCc6cccc(C(=O)Nc7nc8ccccc8s7)c6C5)ccc4-c4cnn(CC5CCCCC5)c4C)cc3)CC2)C(C)(C)C)cc1 [I-252] | > 75 | 10 to 100
Cc1ncsc1-c1ccc([C@H](C)NC(=O)[C@@H]2C[C@@H](O)CN2C(=O)[C@@H](NC(=O)C2CCN(c3ccc(S(=O)(=O)NC(=O)c4nc(N5CCc6cccc(C(=O)Nc7nc8ccccc8s7)c6C5)ccc4-c4cnn(CC5(CCC(=O)O)CCCCC5)c4C)cc3)CC2)C(C)(C)C)cc1 [I-255] | 50 to 75 | 100 to 500
Cc1ncsc1-c1ccc([C@H](C)NC(=O)[C@@H]2C[C@@H](O)CN2C(=O)[C@@H](NC(=O)C2CCN(c3ccc(S(=O)(=O)NC(=O)c4nc(N5CCc6cccc(C(=O)Nc7nc8ccccc8s7)c6C5)ccc4-c4cnn(CC5(CCCN6CCN(C)CC6)CCCCC5)c4C)cc3)CC2)C(C)(C)C)cc1 [I-256] | 50 to 75 | 100 to 500
Cc1ncsc1-c1ccc([C@H](C)NC(=O)[C@@H]2C[C@@H](O)CN2C(=O)[C@@H](NC(=O)N2CCC(N3CCC(S(=O)(=O)NC(=O)c4nc(N5CCc6cccc(C(=O)Nc7nc8ccccc8s7)c6C5)ccc4-c4cnn(CC5CCCCC5)c4C)CC3)CC2)C(C)(C)C)cc1 [I-258] | 50 to 75 | 100 to 500
Cc1ncsc1-c1ccc([C@H](C)NC(=O)[C@@H]2C[C@@H](O)CN2C(=O)[C@@H](NC(=O)C2CCN(c3ccc(S(=O)(=O)NC(=O)c4nc(N5CCc6cccc(C(=O)Nc7nc8ccccc8s7)c6C5)ccc4-c4cnn(CC5CCOCC5)c4C)cc3)CC2)C(C)(C)C)cc1 [I-260] | 50 to 75 | 100 to 500
Cc1ncsc1-c1ccc([C@H](C)NC(=O)[C@@H]2C[C@@H](O)CN2C(=O)[C@@H](NC(=O)N2CCN(c3ccc(S(=O)(=O)NC(=O)c4nc(N5CCc6cccc(C(=O)Nc7nc8ccccc8s7)c6C5)ccc4-c4cnn(CC5CCCCC5)c4C)cc3)CC2)C(C)(C)C)cc1 [I-261] | > 75 | 10 to 100
Cc1cc([C@@H](C(=O)N2C[C@H](O)C[C@H]2C(=O)NCc2ccc(-c3scnc3C)cc2OCCCCCCN(C)C(=O)c2nc(N3CCc4cccc(C(=O)Nc5nc6ccccc6s5)c4C3)ccc2-c2cnn(CC3CCCCC3)c2C)C(C)C)on1 [I-264] | 50 to 75 | 10 to 100

Next, values leading:

Dmax [%] | DC50 [nM] | SMILES
50 to 75 | 10 to 100 | Cc1ncsc1-c1ccc([C@H](C)NC(=O)[C@@H]2C[C@@H](O)CN2C(=O)[C@H](c2cc(N3CC4(CN(c5ccc(S(=O)(=O)NC(=O)c6nc(N7CCc8cccc(C(=O)Nc9nc%10ccccc%10s9)c8C7)ccc6-c6cnn(CC7CCCCC7)c6C)cc5)C4)C3)no2)C(C)C)cc1 [I-225]
50 to 75 | 100 to 500 | C#Cc1ccc([C@H](CO)NC(=O)[C@@H]2C[C@@H](O)CN2C(=O)C(c2cc(OC3CCN(CCCS(=O)(=O)NC(=O)c4nc(N5CCc6cccc(C(=O)Nc7nc8ccccc8s7)c6C5)ccc4-c4cnn(CC5CCCCC5)c4C)CC3)no2)C(C)C)cc1 (some centres unmarked) [I-228]
< 50 | – | Cc1ncsc1-c1ccc([C@H](C)NC(=O)[C@@H]2C[C@@H](O)CN2C(=O)C(c2cc(OC3CCN(c4ccc(S(=O)(=O)NC(=O)c5nc(N6CCc7cccc(C(=O)Nc8nc9ccccc9s8)c7C6)ccc5-c5cnn(CC6CCCCC6)c5C)cc4)CC3)no2)C(C)C)cc1 (some centres unmarked) [I-231]
50 to 75 | 100 to 500 | Cc1ncsc1-c1ccc([C@H](C)NC(=O)[C@@H]2C[C@@H](O)CN2C(=O)[C@@H](NC(=O)CCCCN(C)CCCS(=O)(=O)NC(=O)c2nc(N3CCc4cccc(C(=O)Nc5nc6ccccc6s5)c4C3)ccc2-c2cnn(CC3CCCCC3)c2C)C(C)(C)C)cc1 [I-232]
< 50 | > 1000 | Cc1ncsc1-c1ccc([C@H](C)NC(=O)[C@@H]2C[C@@H](O)CN2C(=O)C(c2cc(OC3CCN(CCCCNC(=O)c4nc(N5CCc6cccc(C(=O)Nc7nc8ccccc8s7)c6C5)ccc4-c4cnn(CC5CCCCC5)c4C)CC3)no2)C(C)C)cc1 (some centres unmarked) [I-233]
< 50 | – | Cc1ncsc1-c1ccc([C@H](C)NC(=O)[C@@H]2C[C@@H](O)CN2C(=O)[C@H](c2cc(N3CC(N4CCC(NC(=O)c5nc(N6CCc7cccc(C(=O)Nc8nc9ccccc9s8)c7C6)ccc5-c5cnn(CC6CCCCC6)c5C)CC4)C3)no2)C(C)C)cc1 [I-235]
< 50 | – | Cc1ncsc1-c1ccc([C@H](C)NC(=O)[C@@H]2C[C@@H](O)CN2C(=O)C(c2cc(N3CCC(CN4CCC(NC(=O)c5nc(N6CCc7cccc(C(=O)Nc8nc9ccccc9s8)c7C6)ccc5-c5cnn(CC6CCCCC6)c5C)CC4)CC3)no2)C(C)C)cc1 (some centres unmarked) [I-238]
< 50 | – | Cc1ncsc1-c1ccc([C@H](C)NC(=O)[C@@H]2C[C@@H](O)CN2C(=O)C(c2cc(N3CC(CN4CCC(NC(=O)c5nc(N6CCc7cccc(C(=O)Nc8nc9ccccc9s8)c7C6)ccc5-c5cnn(CC6CCCCC6)c5C)CC4)C3)no2)C(C)C)cc1 (some centres unmarked) [I-239]
> 75 | < 10 | C#Cc1ccc([C@H](C)NC(=O)[C@@H]2C[C@@H](O)CN2C(=O)[C@@H](NC(=O)C2CCN(c3ccc(S(=O)(=O)NC(=O)c4nc(N5CCc6cccc(C(=O)Nc7nc8ccccc8s7)c6C5)ccc4-c4cnn(CC5CCCCC5)c4C)cc3)CC2)C(C)(C)C)cc1 [I-253]
> 75 | < 10 | C#Cc1ccc(CNC(=O)[C@@H]2C[C@@H](O)CN2C(=O)[C@@H](NC(=O)C2CCN(c3ccc(S(=O)(=O)NC(=O)c4nc(N5CCc6cccc(C(=O)Nc7nc8ccccc8s7)c6C5)ccc4-c4cnn(CC5CCCCC5)c4C)cc3)CC2)C(C)(C)C)c(OC)c1 [I-254]
> 75 | 10 to 100 | C#Cc1ccc(CNC(=O)[C@@H]2C[C@@H](O)CN2C(=O)[C@@H](NC(=O)C2CCN(c3ccc(S(=O)(=O)NC(=O)c4nc(N5CCc6cccc(C(=O)Nc7nc8ccccc8s7)c6C5)ccc4-c4cnn(CC5CCCCC5)c4C)cc3)CC2)C(C)(C)C)c(OCCO)c1 [I-259]
> 75 | < 10 | C#Cc1ccc(CNC(=O)[C@@H]2C[C@@H](O)CN2C(=O)[C@@H](c2cc(N3CCN(c4ccc(S(=O)(=O)NC(=O)c5nc(N6CCc7cccc(C(=O)Nc8nc9ccccc9s8)c7C6)ccc5-c5cnn(CC6CCCCC6)c5C)cc4)CC3)no2)C(C)C)cc1 [I-262]
50 to 75 | 10 to 100 | C#Cc1ccc(CNC(=O)[C@@H]2C[C@@H](O)CN2C(=O)[C@@H](c2cc(N3CCN(c4ccc(S(=O)(=O)NC(=O)c5nc(N6CCc7cccc(C(=O)Nc8nc9ccccc9s8)c7C6)ccc5-c5cnn(CC6CCCCC6)c5C)cc4)CC3)no2)C(C)C)c(OC)c1 [I-263]
50 to 75 | 100 to 500 | Cc1cc([C@@H](C(=O)N2C[C@H](O)C[C@H]2C(=O)NCc2ccc(-c3scnc3C)cc2OCCN(C)C2CCN(C(=O)c3nc(N4CCc5cccc(C(=O)Nc6nc7ccccc7s6)c5C4)ccc3-c3cnn(CC4CCCCC4)c3C)CC2)C(C)C)on1 [I-266]
< 50 | > 1000 | Cc1cc([C@@H](C(=O)N2C[C@H](O)C[C@H]2C(=O)NCc2ccc(-c3scnc3C)cc2OCCN2CCN(C(=O)c3nc(N4CCc5cccc(C(=O)Nc6nc7ccccc7s6)c5C4)ccc3-c3cnn(CC4CCCCC4)c3C)CC2)C(C)C)on1 [I-267]

From US20250197387A1, “BCL-XL DEGRADERS AND USES THEREOF” (Kymera Therapeutics, Inc., priority 2021, published 2025)
